Values quoted from earlier work as cited in EP0530832A1, “Method for processing a silver halide color photographic light-sensitive material” (KONICA CORPORATION, priority 1991, dated 1993).

Tested on: rats
Conditions: rats in an environment containing 15 ppm of formalin

C=O [formalin]
nasal cancers: developed nasal cancers
